Measured values from patent US8772297B2, “TGF-β signal transduction inhibitor” (Kyoto University, priority 2010, dated 2014).
Values belong to the molecule of their own block, whether it stands above or below them.

Legend:
[1] = tested on: TGF-β signal transduction (Smad3/Smad4 complex activation) in x9CAGA/CCL64 cells; assay: Evaluation of TGF-β signal transduction inhibitory activity (CAGA-luciferase reporter, x9CAGA/CCL64 cells stimulated with human TGF-β1); type: cell-based, mink; conditions: 0.5 ng/ml human TGF-β1; for inhibition at 50 µM: 50 μM test compound
Experimental: The biological activity of a compound was determined by measuring the activation of Smad3/Smad4 complex which is a transcription factor showing activation induced by TGF-β stimulation. That is, a reporter plasmid having a DNA sequence (CAGA sequence), which is activated by binding to Smad3/Smad4 complex, is linked to the upstream of the luciferase gene (luminescence enzyme) was prepared. Mink lung epithelial cells CCL64 (named as x9CAGA/CCL64 cells) stably incorporating this reporter plasmid were established. The x9CAGA/CCL64 cells were cultured in DMEM medium containing 10% FBS, penicillin (100 U/ml), streptomycin ([…]), and blasticidin S (1 μg/ml). The x9CAGA/CCL64 cells were seeded in a 96 well plate at a concentration of 1.0×10^4 cells/well, and cultured in a 5% CO2 incubator at 37° C. The next day, the medium was changed to DMEM medium containing 0.2% FBS, and the test compound was added. […] After culture for 16 hr, the cells were washed with PBS, and lysed with 30 μl of cell lysis solution. […] The luminescence level of each well was measured using a Packard EnVision plate reader. The TGF-β signal transduction inhibitory activity of each compound in the x9CAGA/CCL64 cells was calculated from the ratio of the measurement values of the test compound-free well and the well with addition.

[2] = tested on: mouse bile duct ligation induced hepatic fibrosis model; assay: Anti-fibrillization action in mouse bile duct ligation induced hepatic fibrosis model (BDL model); type: in vivo; conditions: ICR mice, tail vein once a day for 14 days, qPCR vs GAPDH, FIG. 4
Experimental: Hepatopathy caused by accumulation of bile in the liver and therewith associated liver fibrillization are induced by ligating the bile duct of mouse. The effect of the test compound on the hepatopathy and liver fibrillization associated therewith was evaluated. […]
mRNA was extracted from the hepatic tissue preserved in RNALater by using an RNA purification kit RNeasy Micro Kit (manufactured by QIAGEN), and the RNA concentration was determined using a spectrophotometer (Nano Drop). […] Using SYBR® Premix EX Taq™ (manufactured by TAKARA), a reaction mixture was prepared according to the package insert, qPCR reaction was performed using respective primers for αSMA and the internal standard GAPDH (manufactured by Invitrogen), and the mRNA expression level was quantified.

Molecule: 4-{[3-(4-oxanylmethoxyphenylsulfamoyl)benzenesulfonylamino]methyl}-piperidine-1-carboxylic acid tert-butyl ester [Y198]
inhibitory activity (%) ([1]; 20 μM test compound): (>30.0%)

IC50 [1]: 66 µM
Molecule: CN(C)c1ccc(NS(=O)(=O)c2cccc(S(=O)(=O)NCC3CCNCC3)c2)cc1-c1ccco1 [Y516, 4-{[3-(4-dimethylamino-3-furan-2-yl-phenylsulfamoyl)benzenesulfonylamino]methyl}piperidine]
mRNA expression level of α smooth muscle actin in the liver tissue [2]: significantly suppressed

Molecule: CC(C)(C)OC(=O)N1CCC(CNS(=O)(=O)c2ccccc2)CC1 [Y083, 4-(benzenesulfonylaminomethyl)piperidine-1-carboxylic acid tert-butyl ester]
inhibition at 50 µM [1]: 24%

IC50 [1]: 3.9 µM
Molecule: CCCC(=O)N1CCC(CNS(=O)(=O)c2cccc(S(=O)(=O)Nc3ccc(N(C)C)c(-c4ccco4)c3)c2)CC1 [Y639, 4-{[3-(4-dimethylamino-3-furan-2-yl-phenylsulfamoyl)benzenesulfonylamino]methyl}-1-butyryl-piperidine]

Molecule: CC(C)(C)OC(=O)N1CCC(CNS(=O)(=O)c2cccc(S(N)(=O)=O)c2)CC1 [Y082, 4-[(3-sulfamoylbenzenesulfonylamino)methyl]piperidine-1-carboxylic acid tert-butyl ester]
inhibition at 50 µM [1]: 29%

Molecule: CC(O)c1ccc(NS(=O)(=O)c2cccc(S(=O)(=O)NCC3CCN(C(=O)OC(C)(C)C)CC3)c2)cc1 (centres unmarked) [Y195, 4-({3-[4-(1-hydroxyethyl)phenylsulfamoyl]benzenesulfonylamino}methyl)-piperidine-1-carboxylic acid tert-butyl ester]
inhibition at 20 µM ([1]; 20 μM test compound): > 12.2%

Molecule: CC(C)(C)OC(=O)N1CCC(CNS(=O)(=O)c2cccc(S(=O)(=O)N3CCCCC3)c2)CC1 [Y029, 4-{[3-(piperidine-1-sulfonyl)benzenesulfonylamino]methyl}piperidine-1-carboxylic acid tert-butyl ester]
inhibition at 50 µM [1]: 88%

IC50 [1]: 0.8 µM
Molecule: Cc1c(C)c(S(=O)(=O)NCC2CCN(C(=O)OC(C)(C)C)CC2)c(C)c(S(=O)(=O)Nc2ccc(C(C)(C)C)cc2)c1C [Y335, 4-{[3-(4-tert-butylphenylsulfamoyl)-2,4,5,6-tetramethylbenzenesulfonylamino]methyl}piperidine-1-carboxylic acid tert-butyl ester]

Molecule: CC(=O)c1ccc(NS(=O)(=O)c2cccc(S(=O)(=O)NCC3CCN(C(=O)OC(C)(C)C)CC3)c2)cc1 [Y192, 4-{[3-(4-acetylphenylsulfamoyl)benzenesulfonylamino]methyl}piperidine-1-carboxylic acid tert-butyl ester]
inhibition at 20 µM ([1]; 20 μM test compound): > 18.4%

Molecule: Cc1ccc(N(C)S(=O)(=O)c2cccc(S(=O)(=O)N(C)CC3CCN(C(=O)OC(C)(C)C)CC3)c2)cc1 [Y191, 4-({methyl-[3-(methyl-p-tolylsulfamoyl)benzenesulfonyl]amino}methyl)piperidine-1-carboxylic acid tert-butyl ester]
inhibition at 20 µM ([1]; 20 μM test compound): 54%

Molecule: CC(C)(C)OC(=O)N1CCN(S(=O)(=O)c2cccc(S(=O)(=O)N3CCCCC3)c2)CC1 [Y043, 4-[3-(piperidine-1-sulfonyl)benzenesulfonyl]piperazine-1-carboxylic acid tert-butyl ester]
inhibition at 50 µM [1]: 67%

Molecule: CC(C)(C)OC(=O)N1CCC(CNS(=O)(=O)c2cccc(S(=O)(=O)NCC3CCCCC3)c2)CC1 [Y101, 4-{[3-(cyclohexylmethylsulfamoyl)benzenesulfonylamino]methyl}-piperidine-1-carboxylic acid tert-butyl ester]
inhibition at 50 µM [1]: 74%

Molecule: CC(C)(C)OC(=O)N1CCC(CNS(=O)(=O)c2cccc(S(=O)(=O)N3CCOCC3)c2)CC1 [Y081, 4-{[3-(morpholine-4-sulfonyl)benzenesulfonylamino]methyl}piperidine-1-carboxylic acid tert-butyl ester]
inhibition at 50 µM [1]: 45%

Molecule: O=C(OCc1ccccc1)N1CCC(CNS(=O)(=O)c2cccc(S(=O)(=O)N3CCCCC3)c2)CC1 [Y053, 4-{[3-(piperidine-1-sulfonyl)benzenesulfonylamino]-methyl}-piperidine-1-carboxylic acid benzyl ester]
inhibition at 50 µM [1]: 67%

Molecule: CCN(CC)S(=O)(=O)c1cccc(S(=O)(=O)NCC2CCN(C(=O)OC(C)(C)C)CC2)c1 [Y080, 4-[(3-diethylsulfamoylbenzenesulfonylamino)methyl]piperidine-1-carboxylic acid tert-butyl ester]
inhibition at 50 µM [1]: 66%

Molecule: CN(CC1CCN(C(=O)OC(C)(C)C)CC1)S(=O)(=O)c1cccc(S(=O)(=O)N(C)c2ccc(C(C)(C)C)cc2)c1 [Y205, 4-[({3-[(4-tert-butylphenyl)methylsulfamoyl]benzenesulfonyl}methylamino)-methyl]piperidine-1-carboxylic acid tert-butyl ester]
inhibition at 20 µM ([1]; 20 μM test compound): 60%
